Like-named read-outs stand apart in the source and are kept apart here. Starred links: 1 amine or outer side, 2 acyl side, 3 side chain; linkers in the order of their positions; H or OH if unused. Positions of bridges follow the written chain, without caps; N, C: chain ends. Non-standard residues stand in square brackets, D forms with d. Residues, ends and D or L forms follow the SMILES beside them. *: point of attachment. Bip(4'-NHCO-C6H4-3-CH2COOH) = N[C@@H](Cc1ccc(-c2ccc(NC(=O)c3cccc(CC(=O)O)c3)cc2)cc1)C(=O)O; Bip(4'-NHCO-C6H4-4-CH2COOH) = N[C@@H](Cc1ccc(-c2ccc(NC(=O)c3ccc(CC(=O)O)cc3)cc2)cc1)C(=O)O; Bip(4'-NH) = O=C([C@H](Cc1ccc(-c2ccc(N[*:3])cc2)cc1)N[*:1])[*:2]; Indazole3carbonyl(1-CH2COOH) = O=C(O)Cn1nc(C(=O)*)c2ccccc21; Bip(4'-COOH) = N[C@@H](Cc1ccc(-c2ccc(C(=O)O)cc2)cc1)C(=O)O; Bip(4'-NHAc) = CC(=O)Nc1ccc(-c2ccc(C[C@H](N)C(=O)O)cc2)cc1; Indole3carbonyl(1-CH2COOH) = O=C(O)Cn1cc(C(=O)*)c2ccccc21; dArg(ω-Bn) = N=C(NCCC[C@@H](N)C(=O)O)NCc1ccccc1; Ala(morpholin-4-yl) = N[C@@H](CN1CCOCC1)C(=O)O; Benzoyl(3-OCH2COOH) = O=C(O)COc1cccc(C(=O)*)c1; Phe(3-CONH2) = NC(=O)c1cccc(C[C@H](N)C(=O)O)c1; Bip = N[C@@H](Cc1ccc(-c2ccccc2)cc1)C(=O)O; 2Pal = N[C@@H](Cc1ccccn1)C(=O)O; 2Thi = N[C@@H](Cc1cccs1)C(=O)O; Cha = N[C@@H](CC1CCCCC1)C(=O)O; Tle = CC(C)(C)[C@H](N)C(=O)O; Sar = CNCC(=O)O
Molecular target: TNFα (Homo sapiens, UniProt P01375)
Test: TNF-Induced HEK-Blue Assay
Type: cell-based
[1] = HEK-Blue-CD40L cells, NF-kB-driven secreted alkaline phosphatase reporter, TNFα 0.5 ng/ml, 18 h, read-out: TNF induced HEK-Blue assay IC50 value

Sequence of TNFα (P01375 77-233 limits assumed): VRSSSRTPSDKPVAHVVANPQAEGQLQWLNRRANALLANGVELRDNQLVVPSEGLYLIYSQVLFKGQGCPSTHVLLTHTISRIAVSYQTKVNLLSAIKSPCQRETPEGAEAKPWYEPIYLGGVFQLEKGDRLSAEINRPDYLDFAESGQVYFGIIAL

SMILES	IC50 [nM]	IC50 [1] [nM]
CC(C)C[C@@H]1NC(=O)[C@H](Cc2cccc(C(N)=O)c2)NC(=O)[C@H](C(C)C)NC(=O)[C@@H]2CCCN2C(=O)[C@H](C(C)C)NC(=O)[C@@H](CCCNC(=N)NCc2ccccc2)NC(=O)[C@H](CC(=O)O)NC(=O)[C@H](Cc2ccc(O)cc2)NC(=O)CN(C)C(=O)[C@H](Cc2ccc(-c3ccc(NC(=O)c4nn(CC(=O)O)c5ccccc45)cc3)cc2)NC(=O)[C@H](Cc2ccc(-c3ccccc3)cc2)NC(=O)[C@H](CN2CCOCC2)NC(=O)CSC[C@@H](C(=O)NCC(N)=O)NC1=O [Example 600] ({CH2CO}-[Ala(morpholin-4-yl)][Bip][Bip(4'-NH)](Indazole3carbonyl(1-CH2COOH))[Sar]YD[dArg(ω-Bn)]VPV[Phe(3-CONH2)]LCG-NH2; thioether N-13)	< 50	
CC(C)C[C@@H]1NC(=O)[C@H](Cc2cccc(C(N)=O)c2)NC(=O)[C@H](C(C)C)NC(=O)[C@@H]2CCCN2C(=O)[C@H](C(C)C)NC(=O)[C@@H](CCCNC(=N)NCc2ccccc2)NC(=O)[C@H](CC(=O)O)NC(=O)[C@H](Cc2ccc(O)cc2)NC(=O)CN(C)C(=O)[C@H](Cc2ccc(-c3ccc(NC(=O)c4cn(CC(=O)O)c5ccccc45)cc3)cc2)NC(=O)[C@H](Cc2ccc(-c3ccccc3)cc2)NC(=O)[C@H](CN2CCOCC2)NC(=O)CSC[C@@H](C(=O)NCC(N)=O)NC1=O [Example 601] ({CH2CO}-[Ala(morpholin-4-yl)][Bip][Bip(4'-NH)](Indole3carbonyl(1-CH2COOH))[Sar]YD[dArg(ω-Bn)]VPV[Phe(3-CONH2)]LCG-NH2; thioether N-13)	< 50	
CC(C)C[C@@H]1NC(=O)[C@H](Cc2cccc(C(N)=O)c2)NC(=O)[C@H](C(C)C)NC(=O)[C@@H]2CCCN2C(=O)[C@H](C(C)C)NC(=O)[C@@H](CCCNC(=N)NCc2ccccc2)NC(=O)[C@H](CC(=O)O)NC(=O)[C@H](Cc2ccc(O)cc2)NC(=O)CN(C)C(=O)[C@H](Cc2ccc(-c3ccc(NC(=O)c4ccc(CC(=O)O)cc4)cc3)cc2)NC(=O)[C@H](Cc2ccc(-c3ccccc3)cc2)NC(=O)[C@H](CN2CCOCC2)NC(=O)CSC[C@@H](C(=O)NCC(N)=O)NC1=O [Example 602] ({CH2CO}-[Ala(morpholin-4-yl)][Bip][Bip(4'-NHCO-C6H4-4-CH2COOH)][Sar]YD[dArg(ω-Bn)]VPV[Phe(3-CONH2)]LCG-NH2; thioether N-13)		< 50
CC(C)C[C@@H]1NC(=O)[C@H](Cc2cccc(C(N)=O)c2)NC(=O)[C@H](C(C)C)NC(=O)[C@@H]2CCCN2C(=O)[C@H](C(C)C)NC(=O)[C@@H](CCCNC(=N)NCc2ccccc2)NC(=O)[C@H](CC(=O)O)NC(=O)[C@H](Cc2ccc(O)cc2)NC(=O)CN(C)C(=O)[C@H](Cc2ccc(-c3ccc(NC(=O)c4cccc(CC(=O)O)c4)cc3)cc2)NC(=O)[C@H](Cc2ccc(-c3ccccc3)cc2)NC(=O)[C@H](CN2CCOCC2)NC(=O)CSC[C@@H](C(=O)NCC(N)=O)NC1=O [Example 603] ({CH2CO}-[Ala(morpholin-4-yl)][Bip][Bip(4'-NHCO-C6H4-3-CH2COOH)][Sar]YD[dArg(ω-Bn)]VPV[Phe(3-CONH2)]LCG-NH2; thioether N-13)		< 50
CC[C@H](C)[C@@H]1NC(=O)[C@@H](CCCNC(=N)N)NC(=O)[C@H](CC(=O)O)NC(=O)[C@H](Cc2ccccn2)NC(=O)CN(C)C(=O)[C@H](Cc2ccc(-c3ccc(NC(C)=O)cc3)cc2)NC(=O)[C@H](Cc2ccc(-c3ccccc3)cc2)NC(=O)[C@H](CN2CCOCC2)NC(=O)CSC[C@@H](C(=O)NCC(N)=O)NC(=O)[C@H](CC(C)C)NC(=O)[C@H](Cc2cccs2)NC(=O)[C@H](C(C)C)NC(=O)[C@@H]2CCCN2C1=O [Example 604] ({CH2CO}-[Ala(morpholin-4-yl)][Bip][Bip(4'-NHAc)][Sar][2Pal]D[dR]IPV[2Thi]LCG-NH2; thioether N-13)		< 50
CC(=O)Nc1ccc(-c2ccc(C[C@@H]3NC(=O)[C@H](Cc4ccc(-c5ccccc5)cc4)NC(=O)[C@H](C(C)(C)C)NC(=O)CSC[C@@H](C(=O)NCC(N)=O)NC(=O)[C@H](CC(C)C)NC(=O)[C@H](Cc4cccs4)NC(=O)[C@H](C(C)C)NC(=O)[C@@H]4CCCN4C(=O)[C@H](C(C)C)NC(=O)[C@@H](CCCNC(=N)N)NC(=O)[C@H](CC(=O)O)NC(=O)[C@H](Cc4ccccn4)NC(=O)CN(C)C3=O)cc2)cc1 [Example 605] ({CH2CO}-[Tle][Bip][Bip(4'-NHAc)][Sar][2Pal]D[dR]VPV[2Thi]LCG-NH2; thioether N-13)		200 to 2000
CC(C)C[C@@H]1NC(=O)[C@H](Cc2cccs2)NC(=O)[C@H](C(C)C)NC(=O)[C@@H]2CCCN2C(=O)[C@H](C(C)C)NC(=O)[C@@H](CCCNC(=N)N)NC(=O)[C@H](CC(=O)O)NC(=O)[C@H](Cc2ccccn2)NC(=O)CN(C)C(=O)[C@H](Cc2ccc(-c3ccc(NC(=O)c4cccc(OCC(=O)O)c4)cc3)cc2)NC(=O)[C@H](Cc2ccc(-c3ccccc3)cc2)NC(=O)[C@H](CN2CCOCC2)NC(=O)CSC[C@@H](C(=O)NCC(N)=O)NC1=O [Example 606] ({CH2CO}-[Ala(morpholin-4-yl)][Bip][Bip(4'-NH)](Benzoyl(3-OCH2COOH))[Sar][2Pal]D[dR]VPV[2Thi]LCG-NH2; thioether N-13)		< 50
CC(C)C[C@@H]1NC(=O)[C@H](Cc2cccs2)NC(=O)[C@H](C(C)C)NC(=O)[C@@H]2CCCN2C(=O)[C@H](C(C)C)NC(=O)[C@@H](CCCNC(=N)N)NC(=O)[C@H](CC(=O)O)NC(=O)[C@H](Cc2ccccn2)NC(=O)CN(C)C(=O)[C@H](Cc2ccc(-c3ccc(NC(=O)c4ccc(CC(=O)O)cc4)cc3)cc2)NC(=O)[C@H](Cc2ccc(-c3ccccc3)cc2)NC(=O)[C@H](CN2CCOCC2)NC(=O)CSC[C@@H](C(=O)NCC(N)=O)NC1=O [Example 607] ({CH2CO}-[Ala(morpholin-4-yl)][Bip][Bip(4'-NHCO-C6H4-4-CH2COOH)][Sar][2Pal]D[dR]VPV[2Thi]LCG-NH2; thioether N-13)		< 50
CC(C)C[C@@H]1NC(=O)[C@H](Cc2cccs2)NC(=O)[C@H](C(C)C)NC(=O)[C@@H]2CCCN2C(=O)[C@H](C(C)C)NC(=O)[C@@H](CCCNC(=N)N)NC(=O)[C@H](CC(=O)O)NC(=O)[C@H](Cc2ccccn2)NC(=O)CN(C)C(=O)[C@H](Cc2ccc(-c3ccc(NC(=O)c4cccc(CC(=O)O)c4)cc3)cc2)NC(=O)[C@H](Cc2ccc(-c3ccccc3)cc2)NC(=O)[C@H](CN2CCOCC2)NC(=O)CSC[C@@H](C(=O)NCC(N)=O)NC1=O [Example 608] ({CH2CO}-[Ala(morpholin-4-yl)][Bip][Bip(4'-NHCO-C6H4-3-CH2COOH)][Sar][2Pal]D[dR]VPV[2Thi]LCG-NH2; thioether N-13)		< 50
CC(C)C[C@@H]1NC(=O)[C@H](Cc2cccs2)NC(=O)[C@H](C(C)C)NC(=O)[C@@H]2CCCN2C(=O)[C@H](C(C)C)NC(=O)[C@@H](CCCNC(=N)N)NC(=O)[C@H](CC(=O)O)NC(=O)[C@H](Cc2ccccn2)NC(=O)CN(C)C(=O)[C@H](Cc2ccc(-c3ccc(NC(=O)c4cccc(OCC(=O)O)c4)cc3)cc2)NC(=O)[C@H](Cc2ccc(-c3ccc(C(=O)O)cc3)cc2)NC(=O)[C@H](CN2CCOCC2)NC(=O)CSC[C@@H](C(=O)NCC(N)=O)NC1=O [Example 609] ({CH2CO}-[Ala(morpholin-4-yl)][Bip(4'-COOH)][Bip(4'-NH)](Benzoyl(3-OCH2COOH))[Sar][2Pal]D[dR]VPV[2Thi]LCG-NH2; thioether N-13)		< 50
CC(C)C[C@@H]1NC(=O)[C@H](Cc2cccs2)NC(=O)[C@H](C(C)C)NC(=O)[C@@H]2CCCN2C(=O)[C@H](C(C)C)NC(=O)[C@@H](CCCNC(=N)N)NC(=O)[C@H](CC(=O)O)NC(=O)[C@H](Cc2ccccn2)NC(=O)CN(C)C(=O)[C@H](Cc2ccc(-c3ccc(NC(=O)c4cccc(CC(=O)O)c4)cc3)cc2)NC(=O)[C@H](Cc2ccc(-c3ccc(C(=O)O)cc3)cc2)NC(=O)[C@H](CN2CCOCC2)NC(=O)CSC[C@@H](C(=O)NCC(N)=O)NC1=O [Example 610] ({CH2CO}-[Ala(morpholin-4-yl)][Bip(4'-COOH)][Bip(4'-NHCO-C6H4-3-CH2COOH)][Sar][2Pal]D[dR]VPV[2Thi]LCG-NH2; thioether N-13)		< 50
CC(C)C[C@@H]1NC(=O)[C@H](Cc2cccs2)NC(=O)[C@H](C(C)C)NC(=O)[C@@H]2CCCN2C(=O)[C@H](C(C)C)NC(=O)[C@@H](CCCNC(=N)N)NC(=O)[C@H](CC(=O)O)NC(=O)[C@H](Cc2ccccn2)NC(=O)CN(C)C(=O)[C@H](Cc2ccc(-c3ccc(NC(=O)c4ccc(CC(=O)O)cc4)cc3)cc2)NC(=O)[C@H](Cc2ccc(-c3ccc(C(=O)O)cc3)cc2)NC(=O)[C@H](CN2CCOCC2)NC(=O)CSC[C@@H](C(=O)NCC(N)=O)NC1=O [Example 611] ({CH2CO}-[Ala(morpholin-4-yl)][Bip(4'-COOH)][Bip(4'-NHCO-C6H4-4-CH2COOH)][Sar][2Pal]D[dR]VPV[2Thi]LCG-NH2; thioether N-13)		< 50
CC(C)C[C@@H]1NC(=O)[C@H](Cc2cccs2)NC(=O)[C@H](C(C)C)NC(=O)[C@@H]2CCCN2C(=O)[C@H](C(C)C)NC(=O)[C@@H](CCCNC(=N)N)NC(=O)[C@H](CC(=O)O)NC(=O)[C@H](Cc2ccccn2)NC(=O)CN(C)C(=O)[C@H](Cc2ccc(-c3ccc(NC(=O)c4ccc(CC(=O)O)cc4)cc3)cc2)NC(=O)[C@H](Cc2ccc(-c3ccc(C(=O)O)cc3)cc2)NC(=O)[C@H](CC2CCCCC2)NC(=O)CSC[C@@H](C(=O)NCC(N)=O)NC1=O [Example 612] ({CH2CO}-[Cha][Bip(4'-COOH)][Bip(4'-NHCO-C6H4-4-CH2COOH)][Sar][2Pal]D[dR]VPV[2Thi]LCG-NH2; thioether N-13)		50 to 200
CC(C)C[C@@H]1NC(=O)[C@H](Cc2cccs2)NC(=O)[C@H](C(C)C)NC(=O)[C@@H]2CCCN2C(=O)[C@H](C(C)C)NC(=O)[C@@H](CCCNC(=N)N)NC(=O)[C@H](CC(=O)O)NC(=O)[C@H](Cc2ccccn2)NC(=O)CN(C)C(=O)[C@H](Cc2ccc(-c3ccc(NC(=O)c4cccc(CC(=O)O)c4)cc3)cc2)NC(=O)[C@H](Cc2ccc(-c3ccc(C(=O)O)cc3)cc2)NC(=O)[C@H](CC2CCCCC2)NC(=O)CSC[C@@H](C(=O)NCC(N)=O)NC1=O [Example 613] ({CH2CO}-[Cha][Bip(4'-COOH)][Bip(4'-NHCO-C6H4-3-CH2COOH)][Sar][2Pal]D[dR]VPV[2Thi]LCG-NH2; thioether N-13)		50 to 200

Source: patent US20250145665A1, “MACROCYCLIC PEPTIDES USEFUL AS MODULATORS OF TNF ALPHA” (Bristol-Myers Squibb Company, priority 2023, published 2025)
